Assay [1] relates to MDA-MB-435. As to the kind of experiment: NCI screen cytotoxicity, breast MDA-MB-435. The format is cell-based. The settings on record: Homo sapiens, MDA-MB-435, read-out: Cytotoxicity (GI50 in μM) breast MDA-MB-435; 50% growth inhibition.
Assay [2] has as its system HCT-116. Briefly: NCI screen cytotoxicity, colon HCT-116. The conditions noted are these: Homo sapiens, 50% growth inhibition. The format is cell-based.
The subject of assay [3] is SF-539. As to the kind of experiment: NCI screen cytotoxicity, CNS SF-539. Format: cell-based. The conditions noted are these: Homo sapiens, read-out: Cytotoxicity (GI50 in μM) CNS SF-539; 50% growth inhibition.
Assay [4] has as its system all human cancer cell lines successfully tested. Briefly: NCI screen, mean graph midpoint (MGM) for growth inhibition. The conditions noted are these: for GI50: Homo sapiens.
The subject of assay [5] is OVCAR-3. As to the kind of experiment: NCI screen cytotoxicity, ovarian OVCAR-3. The settings on record: Homo sapiens, OVCAR-3, read-out: Cytotoxicity (GI50 in μM) ovarian OVCAR-3.
The subject of assay [6] is DU-145. As to the kind of experiment: NCI screen cytotoxicity, prostate DU-145. Format: cell-based. The settings on record: Homo sapiens, DU-145, read-out: Cytotoxicity (GI50 in μM) prostate DU-145; 50% growth inhibition.
Assay [7] concerns the target T1, Tdp1 (Homo sapiens (Human), UniProt Q9NUW8). Briefly: Gel-based assay measuring the inhibition of recombinant Tdp1.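 Also: 5′-32P-labeled single-stranded DNA with 3′-phosphotyrosine incubated with 5 pM enzyme for 15 min at room temperature, inhibition seen as loss of 3′-phosphate product band by densitometry.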 Format: biochemical.
Method: Tdp1 inhibitory activity was measured by the drug's ability to inhibit the hydrolysis of the phosphodiester linkage between tyrosine and the 3′-end of the DNA substrate, and to prevent the generation of an oligonucleotide with a free 3′-phosphate (N14P). Therefore, the disappearance of the gel band for N14P indicated Tdp1 inhibition.
Gel-Based Assay Measuring the Inhibition of Recombinant Tdp1. A 5′-[^32P]-labeled single-stranded DNA oligonucleotide containing a 3′-phosphotyrosine (N14Y) was generated as described by Dexheimer et al. The DNA substrate was then incubated with 5 pM recombinant Tdp1 in the absence or presence of inhibitor for 15 min at room temperature in a buffer containing 50 mM Tris HCl, pH 7.5, 80 mM KCl, 2 mM EDTA, 1 mM DTT, 40 μg/ml BSA and 0.01% Tween-20. […] Gel images were scanned using a Typhoon 8600 (GE Healthcare) and densitometric analyses were performed using the ImageQuant software (GE Healthcare).
Assay [8] has as its system HOP-62. Briefly: NCI screen cytotoxicity, lung HOP-62. The format is cell-based. The settings on record: Homo sapiens, 50% growth inhibition.
Assay [9] relates to UACC-62. Briefly: NCI screen cytotoxicity, melanoma UACC-62. The format is cell-based. The settings on record: Homo sapiens, 50% growth inhibition.
Assay [10] relates to SN12C. Briefly: NCI screen cytotoxicity, renal SN12C. The format is cell-based. The settings on record: Homo sapiens, 50% growth inhibition.
The target of assay [11] is Human recombinant Top1 (Homo sapiens (Human), UniProt P11387). Briefly: Topoisomerase I-mediated DNA cleavage reactions.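 As to all read-outs here: 3′-end radiolabeled DNA substrate (about 2 nM) incubated with recombinant Top1 and compound for 20 min at 25 °C, cleavage products resolved by denaturing PAGE and phosphoimaging.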 The settings on record: for Top1 (compound-induced DNA cleavage, semiquantitative scale): series (B), relative to 1 μM camptothecin (90) or MJ-III-65 (91); for Top1 inhibition (semiquantitative scale): series (A), relative to 1 μM camptothecin. The format is biochemical.
Chain of Human recombinant Top1 (P11387 whole entry): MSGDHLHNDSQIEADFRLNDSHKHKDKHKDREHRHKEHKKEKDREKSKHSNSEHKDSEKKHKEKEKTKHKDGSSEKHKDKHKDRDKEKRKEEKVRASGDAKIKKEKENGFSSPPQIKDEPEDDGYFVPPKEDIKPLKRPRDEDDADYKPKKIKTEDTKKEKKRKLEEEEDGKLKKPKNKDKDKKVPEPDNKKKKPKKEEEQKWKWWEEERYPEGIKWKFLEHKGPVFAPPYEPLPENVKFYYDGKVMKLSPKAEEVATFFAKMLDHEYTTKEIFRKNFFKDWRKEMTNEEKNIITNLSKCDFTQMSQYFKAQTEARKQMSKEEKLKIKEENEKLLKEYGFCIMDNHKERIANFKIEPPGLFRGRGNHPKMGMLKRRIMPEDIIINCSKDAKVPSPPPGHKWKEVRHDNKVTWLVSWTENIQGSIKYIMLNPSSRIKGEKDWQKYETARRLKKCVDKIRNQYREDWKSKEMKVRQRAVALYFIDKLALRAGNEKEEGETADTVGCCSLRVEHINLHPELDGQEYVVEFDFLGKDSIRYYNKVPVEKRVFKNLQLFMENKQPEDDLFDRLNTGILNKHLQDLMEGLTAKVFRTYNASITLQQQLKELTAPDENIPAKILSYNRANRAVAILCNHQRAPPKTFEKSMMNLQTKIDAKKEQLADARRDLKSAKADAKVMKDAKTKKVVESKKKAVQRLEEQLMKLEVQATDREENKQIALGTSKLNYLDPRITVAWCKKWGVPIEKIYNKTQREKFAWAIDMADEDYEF
Method: Additionally, all indenoisoquinoline sulfonates and sulfonamides were tested for Top1 cleavage complex poisoning in a Top1-mediated DNA cleavage assay.
Topoisomerase I-Mediated DNA Cleavage Reactions. Human recombinant Top1 was purified from baculovirus as previously described. DNA cleavage reactions were prepared as previously reported with the exception of the DNA substrate. […] Unincorporated [^32P]dGTP was removed using mini Quick Spin DNA columns (Roche, Indianapolis, Ind.), and the eluate containing the 3′-end-labeled DNA substrate was collected. Approximately 2 nM radiolabeled DNA substrate was incubated with recombinant Top1 in 20 μL of reaction buffer [10 mM Tris-HCl (pH 7.5), 50 mM KCl, 5 mM MgCl2, 0.1 mM EDTA, and 15 μg/mL BSA] at 25° C. for 20 min in the presence of various concentrations of compounds. The reactions were terminated by adding SDS (0.5% final concentration) followed by the addition of two volumes of loading dye (80% formamide, 10 mM sodium hydroxide, 1 mM sodium EDTA, 0.1% xylene cyanol, and 0.1% bromphenol blue). Aliquots of each reaction mixture were subjected to 20% denaturing PAGE. Gels were dried and visualized by using a phosphoimager and ImageQuant software (Molecular Dynamics).
Topoisomerase I-Mediated DNA Cleavage Reactions. Top1 reactions were performed as recently described. […] The reactions were terminated by adding SDS (0.5% final concentration) followed by the addition of two volumes of loading dye (80% formamide, 10 mM sodium hydroxide, 1 mM sodium EDTA, 0.1% xylene cyanol, and 0.1% bromphenol blue). Reactions were subjected to 20% denaturing PAGE. Gels were dried and visualized by using a Typhoon 8600 and ImageQuant software (Molecular Dynamics).

The target in assay [12] is T1, Tdp1. Briefly: Surface plasmon resonance analysis. The settings on record: immobilized Tdp1. The format is binding. In general terms: Surface plasmon resonance follows binding to a sensor surface in real time, without labels.
Method: Surface Plasmon Resonance Analysis. Binding experiments were performed on a Biacore T100 instrument (GE, Piscataway N.J.). Tdp1 was amine coupled to a CM5 sensor chip (GE Healthcare, Piscataway N.J.). […] (EDC), N-hydroxysuccinimide (NHS) and ethanolamine were purchased from GE Heathcare, (Piscataway N.J.). Neutravidin was obtained from Pierce. In order to protect the amine groups within the active site from modification, Tdp1 was bound with a 14-base oligonucleotide before coupling to the surface. […] The CM5 chip surface was activated for 7 min. with 0.1 M NHS and 0.4 M EDC at a flow rate of 20 μL/min and Tdp1-oligonucleotide mixture was injected until approximately 4000 RU's was attached. Activated amine groups were quenched with an injection of 1 M solution of ethanolamine pH 8.0 for 7 min. Any bound oligonucleotide was removed by washing the surface with 1 M NaCl. A reference surface was prepared in the same manner without coupling of Tdp1. […] Following compound injections, the surface was regenerated with a 30 second injection 1 M NaCl, a 30 second injection of 50% DMSO (v/v) and a 30 second running buffer injection. Each cycle of compound injection was followed by buffer cycle for referencing purposes. A DMSO calibration curve was included to correct for refractive index mismatches between the running buffer and compound dilution series.
Surface Plasmon Resonance Analysis. […]
Assay [13] concerns the target endogenous human Tdp1 in whole cell extract (Homo sapiens (Human), UniProt Q9NUW8). Briefly: Gel-based assay measuring the inhibition of endogenous human Tdp1 in whole cell extract. The format is biochemical. The settings on record: human Tdp1 in whole cell extract (WCE). How it is done: Gel-Based Assay Measuring the Inhibition of Endogenous Human Tdp1 in Whole Cell Extract. 1×10^7 DT40 knockout cells for chicken Tdp1 and complemented with human Tdp1 were collected, washed and centrifuged. Cell pellet was then resuspended with 100 μL of CellLytic M Cell Lysis Reagent (SIGMA-Aldrich C2978). After 15 min, the lysate was centrifuged at a 12,000 g for 10 min and the supernatant was transferred to a new tube. Protein concentration was determined using a nanodrop spectrophotometer (Invitrogen) and the whole cell extract was stored at −80° C. […] Reactions were then treated similarly to the recombinant enzyme containing samples (see section above).
All compounds were first tested in gel based assays for Tdp1 inhibition using recombinant (rec.) human Tdp1 and only the active compounds were tested for human Tdp1 inhibition in whole cell extract (WCE). […] was included in all experiments as positive control.

Assay [14] has as its target T1, Tdp1. The settings on record: known inhibitor; cited from earlier work.

Molecules are shown by their SMILES. Read-outs that look alike come from different tables or passages of the source.

The term IC50 denotes the point on the concentration scale where inhibition reaches its midpoint.

T1 sequence (Q9NUW8 whole entry): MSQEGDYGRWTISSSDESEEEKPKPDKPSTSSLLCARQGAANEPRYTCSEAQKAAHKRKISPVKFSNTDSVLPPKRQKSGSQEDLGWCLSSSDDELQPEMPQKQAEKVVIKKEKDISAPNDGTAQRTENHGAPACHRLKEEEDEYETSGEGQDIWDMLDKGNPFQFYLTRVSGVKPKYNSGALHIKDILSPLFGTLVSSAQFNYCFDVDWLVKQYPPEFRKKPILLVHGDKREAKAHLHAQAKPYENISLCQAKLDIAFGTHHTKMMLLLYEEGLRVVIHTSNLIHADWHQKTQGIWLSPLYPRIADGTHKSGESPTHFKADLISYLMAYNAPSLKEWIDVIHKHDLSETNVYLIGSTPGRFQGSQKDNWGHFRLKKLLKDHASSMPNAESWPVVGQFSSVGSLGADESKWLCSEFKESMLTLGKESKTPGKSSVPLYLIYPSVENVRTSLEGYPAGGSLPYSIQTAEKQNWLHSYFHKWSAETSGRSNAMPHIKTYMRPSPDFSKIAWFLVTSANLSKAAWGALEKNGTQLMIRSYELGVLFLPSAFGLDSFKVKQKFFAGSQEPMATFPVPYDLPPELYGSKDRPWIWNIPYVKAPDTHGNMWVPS
Chain of endogenous human Tdp1 in whole cell extract (Q9NUW8 whole entry): as above

Take `CCOC(=O)CNc1ccc2c3c(n(CCCN)c(=O)c2c1)-c1ccccc1C3=O.Cl` [Compound 40 of (B), Ethyl 2-[(6-(3-Aminopropyl)-5,11-dioxo-6,11-dihydro-5H-indeno[1,2-c]isoquinolin-3-yl)amino]acetate Hydrochloride]: the GI50 is 3.05 µM in assay [1]; 0.44 µM in assay [2]; 8.91 µM in assay [3]; 1.69 µM in assay [4] (read-out: MGM (μM)); 3.12 µM in assay [5]; 1.68 µM in [6]. The results for the GI50 in assay [8], in assay [9] and in [10] were 0.93 µM, 2.25 µM and 1.75 µM, respectively. Also, in assay [7], the “Tdp1 inhibitory activity (in words)” value is “active”. In addition, in [7] (read-out: Tdp1 (μM) IC50), the IC50 worked out at 11 ± 5 µM.
As for `Cl.NCCCn1c2c(c3ccc(NCC(=O)O)cc3c1=O)C(=O)c1ccccc1-2` [Compound 43 of (B), 2-((6-(3-Aminopropyl)-5,11-dioxo-6,11-dihydro-5H-indeno[1,2-c]isoquinolin-3-yl)amino)acetic Acid Hydrochloride], the GI50 in assay [1] was 1.14 µM; in assay [2], 0.33 µM; in assay [3] it was 1.79 µM; in assay [4] (read-out: MGM (μM)) it was 0.87 ± 0.014 µM; in [5], 1.6 µM; in assay [6], 1.51 µM. Also, the figures for the GI50 in [8], in [9] and in [10] were 0.65 µM, 0.72 µM and 0.49 µM, respectively. In assay [11], the “Top1 (compound-induced DNA cleavage, semiquantitative scale)” value stood at 0. In addition, in assay [7] (series (B), determined by quadruplicate, read-out: Tdp1 (μM) IC50), the IC50 was 5 ± 1.4 µM.
For the compound `COc1ccc2c(c1)-c1c(c3ccc([N+](=O)[O-])cc3c(=O)n1CCCN)C2=O.Cl` [Compound 51 of (B), 6-(3-Aminopropyl)-5,6-dihydro-8-methoxy-3-nitro-5,11-dioxo-11H-indeno[1,2-c]isoquinoline Hydrochloride], the GI50 came to 0.58 µM in [1]; 0.06 µM in [2]; 0.61 µM in [3]; 0.17 ± 0.017 µM in assay [4] (read-out: MGM (μM)); 0.54 µM in [5]; 0.18 µM in [6]. Also, the GI50 in assay [10] is 0.15 µM. In addition, in assay [11], the “Top1 (compound-induced DNA cleavage, semiquantitative scale)” value was “++”. Moreover, in assay [7] (read-out: Tdp1 (μM) IC50), the IC50 is 15 ± 3 µM.
For the compound `COc1ccc2c(c1)-c1c(c3ccc([N+](=O)[O-])cc3c(=O)n1CCCn1ccnc1)C2=O` [Compound 52 of (B), 6-(3-(1H-Imidazol-1-yl)propyl)-8-methoxy-3-nitro-5H-indeno[1,2-c]isoquinoline-5,11(6H)-dione], the GI50 in assay [1] is 0.03 µM; in assay [2], < 0.01 µM; in [4] (read-out: MGM (μM)), 0.02 µM; in assay [5], 0.03 µM; in assay [6], < 0.01 µM; in assay [8], < 0.01 µM. For the same compound, the GI50 in assay [9] and in [10] was < 0.01 µM in each case. Also, the “suppression of DNA cleavage at high drug concentration” value in [11] (100 μM) is “slight suppression”. The “Top1 (compound-induced DNA cleavage, semiquantitative scale)” value in assay [11] is reported as “+++”. In addition, the “MGM” value in assay [4] (series (B), mean graph midpoint GI50, ± standard error where two determinations, listed as 52) was 0.02 ± 0.0006 µM. The “Tdp1 (IC50, semiquantitative scale)” value in assay [7] is reported as “(+)”. Further, the “Tdp1 inhibitory activity (in words)” value in [7] was “very weak or inactive”.
In the case of `NCCCn1c2c(c3ccc(N)cc3c1=O)C(=O)c1ccccc1-2` [Compound 62 of (B)], the GI50 in assay [1] came out at 0.23 µM; in assay [2] it was 0.18 µM; in [3] it was 0.34 µM; in assay [4] (read-out: MGM (μM)), 0.16 µM; in assay [5], 0.13 µM; in assay [6], 0.12 µM. For the same compound, the GI50 was 0.27 µM in [8], 0.3 µM in [9] and 0.23 µM in assay [10].
For the compound `Cl.NCCCn1c2c(c3ccccc3c1=O)C(=O)c1ccccc1-2` [Compound 70 of (A)], the “Top1 inhibition (semiquantitative scale)” value in assay [11] is “+++ (between 75% and 95% activity)”. The “binding to Tdp1 by surface plasmon resonance” value in [12] was “direct binding”.
As for `O=C1c2ccccc2-c2c1c1ccccc1c(=O)n2CCCNCCCNCCCn1c2c(c3ccccc3c1=O)C(=O)c1ccccc1-2` [Compound 145 of (A), Bis-1,3-{(5,6-dihydro-5,11-diketo-11 H-indeno[1,2-c]isoquinoline)-6-propyl-amino}propane Bis(trifluoroacetate)], the IC50 in [13] came out at 1900 nM; in assay [7] it was 1.5 µM. The “Top1 inhibition (semiquantitative scale)” value in [11] is reported as “++++”. For the same compound, the GI50 in assay [4] (read-out: MGM GI50) stood at 0.394 µM.
Turning to `[O]=[V]([O-])([O-])[O-]` [vanadate], the “Tdp1 inhibition (in words)” value in [14] is “inhibition at millimolar concentrations”.

Values taken from patent US8912213B2, “Synthesis and use of dual tyrosyl-DNA phosphodiesterase I (TDP1)- topoisomerase I (TOP1) inhibitors” (Purdue Research Foundation, priority 2012, dated 2014).
